Measured values from US5030647A, “Anti-inflammatory thienylbenzylamine compounds” (Boehringer Ingelheim Pharmaceuticals, Inc., priority 1990, dated 1991).
Structures can show the parent of a compound that is named as a salt. Where two headings read alike, the source gives them in different places.

Assays:
paw swelling = test: Reverse passive Arthus reaction, inhibition of paw swelling after oral dosing; type: in vivo; conditions: rats; for inhibition in vivo at 30 mg/kg / inhibition in vivo at 10 mg/kg / inhibition in vivo at 100 mg/kg: Rattus norvegicus, po; for inhibition in vivo at 10 mg/kg: 10 mg/kg oral; for inhibition in vivo at 100 mg/kg: 100 mg/kg oral
Description: The reverse passive Arthus reaction is initiated by the interaction of antigen and antibody resulting in the formation of a precipitating immune complex, followed by fixation of complement, accumulation of leukocytes, edema and hemorrhage. The immunopathology of rheumatoid arthritis involves many of the parameters found in this reaction. Test groups (5 rats per group) are dosed orally with compounds one hour prior to the sub-plantar injection into the right hind paw of rabbit anti-ovalbumin antibody (50 μg/0.1 ml). Immediately afterwards, ovalbumin (Sigma, #5503) (5 mg/0.2 ml) is injected i.v. via the tail vein. The right hind paw volume is measured at hourly intervals, from one to four hours after the injection of the immune reactants. The change in paw volume for each animal is calculated by subtracting zero hour paw volume (before injection) from the paw volume at the time of measurement. The mean of these values is calculated for each group. Results are expressed in Table I below as percent inhibition of paw swelling compared to untreated controls.

human PMN = test: Chemotaxis of human peripheral leukocytes (human PMN chemotaxis, FMLP as chemoattractant); type: cell-based; conditions: Leukocyte, FMLP 1×10^-8 M; for inhibition at 1 µM: read-out: PERCENT INHIBITION (human PMN chemotaxis) 1 μM
Description: A) Equal parts of citrated peripheral venous blood drawn from a normal volunteer were mixed with saline containing 6% dextran. The mixture was allowed to sediment for 30-40 minutes in a 50 ml polypropylene centrifuge tube. B) The plasma was decanted and centrifuged at 1500 rpm for 7 minutes and washed with saline. C) The supernatant was decanted and the contaminating red blood cells were eliminated by adding ice cold lysing solution and allowing the cell suspension to stand on ice for 5 minutes. […] E) The tubes were centrifuged at 400g for 30 minutes at room temperature. F) The supernatant was decanted and the PMNs (pelleted on the bottom of the tubes) were washed with saline and with Hanks buffer. The cells were adjusted to a final concentration of 3×10^6 cells/ml in Hanks buffer containing 0.5% BSA. 1) Chemoattractant: serial dilution was prepared of the stocks (10^-3 M) N-Formyl-methionyl-leucylphenylalanine in Hanks buffer and 130 μl of 1×10^-8 M solution was pipetted into the lower bottom chamber. The bottom chamber of the negative control was filled with saline. 2) Placed Millipore membranes to completely cover the wells and allowed the liquid to absorb. 3) Placed on upper chamber and tighten retaining nuts. 1) Sample preparation: Mixed equal volume of sample diluted in Hanks buffer containing […] and cell suspension in a test tube prior to pipetting 200 μl into appropriate duplicate chambers. 2) Incubated chambers at 37° C. for 40-60 minutes. 10) Three to five fields per membrane were counted with the aid of the Image Analyser (optimal 40-10). Special effort was made to select a standard for evaluating the cell monolayer in which the distribution of cells in the field of view is uniform. The number of cells at each […] level beneath the selected monolayer was then counted and the chemotactic index (CI) calculated by multiplying the individual cell count at each level by their corresponding depth of penetration, and taking the sum of these numbers. 11) The results in Table II are recorded as percent inhibition. Percent inhibition by each thienylbenzylamime was calculated as follows: [formula] The CI of the control was determined by conducting the assay with N-formyl-methionyl-leucylphenylalanine (FMLP) alone without any thienlbenzylamine. The background was determined by conducting the assay without any FMLP.

[1] = 2 h, 30 mg/kg oral, 2 hours, read-out: % INHIBITION (of paw swelling) HOUR 2
[2] = 3 h, 30 mg/kg oral, 3 hours, read-out: % INHIBITION (of paw swelling) HOUR 3
[3] = 4 h, 30 mg/kg oral, 4 hours, read-out: % INHIBITION (of paw swelling) HOUR 4
[4] = 2 h, 2 hours, read-out: % INHIBITION (of paw swelling) HOUR 2
[5] = 3 h, 3 hours, read-out: % INHIBITION (of paw swelling) HOUR 3
[6] = 4 h, 4 hours, read-out: % INHIBITION (of paw swelling) HOUR 4

`CN(C)Cc1ccccc1C(O)c1csc(Br)c1` (centres unmarked) [Compound 23, 5-bromo-3-[(2-N,N-dimethylaminomethylphenyl)hydroxymethyl] thiophene hydrochloride] showed an inhibition in vivo at 30 mg/kg (paw swelling; [1]) of 72%, an inhibition in vivo at 30 mg/kg (paw swelling; [2]) of 66% and an inhibition in vivo at 30 mg/kg (paw swelling; [3]) of 44%. For the same compound, the inhibition at 1 µM (human PMN) was 34%.

With `CN(C)Cc1ccccc1C(C)(O)c1ccc(Br)s1` (centres unmarked) [Compound 34, N,N-dimethyl-2-[1-(5-bromothien-2-yl)-1-hydroxyethyl]benzylamine] the inhibition in vivo at 30 mg/kg (paw swelling; [1]) was 66%, the inhibition in vivo at 30 mg/kg (paw swelling; [2]) was 49% and the inhibition in vivo at 30 mg/kg (paw swelling; [3]) was 14%.

With `CN(C)Cc1ccccc1C(O)c1cc(Br)cs1` (centres unmarked) [Compound 18, 4-bromo-2-[(2-dimethylaminomethylphenyl)hydroxymethyl]thiophene] the inhibition in vivo at 30 mg/kg (paw swelling; [1]) was 35%, the inhibition in vivo at 30 mg/kg (paw swelling; [2]) was 37% and the inhibition in vivo at 30 mg/kg (paw swelling; [3]) was 40%.

`CN(C)Cc1ccccc1C(O)c1ccc(Cl)s1.O=C(O)/C=C/C(=O)O` (centres unmarked) [Compound 16, 5-chloro-2-[-(2-dimethylaminomethylphenyl)-1-hydroxymethyl]thiophene monofumarate] was tested, and the “% INHIBITION (of paw swelling) HOUR 2” value (paw swelling; 30 mg/kg oral, 2 hours) was 17%, the “% INHIBITION (of paw swelling) HOUR 3” value (paw swelling; 30 mg/kg oral, 3 hours) was 11% and the “% INHIBITION (of paw swelling) HOUR 4” value (paw swelling; 30 mg/kg oral, 4 hours) was 0%.

For `CN(C)Cc1ccccc1C(O)c1scc(Br)c1Br` (centres unmarked) [Compound 27, 3,4-dibromo-2-[(2-N,N-dimethylaminomethylphenyl)hydroxymethyl]thiophene hydrochloride], the inhibition in vivo at 30 mg/kg (paw swelling; [1]) was 39%, the inhibition in vivo at 30 mg/kg (paw swelling; [2]) was 25% and the inhibition in vivo at 30 mg/kg (paw swelling; [3]) was 10%.

For `CC(=O)c1ccc(C(O)c2ccccc2CN(C)C)s1` (centres unmarked) [Compound 20, 5-acetyl-2-[(2-dimethylaminomethylphenyl)hydroxymethyl]thiophene], the inhibition in vivo at 30 mg/kg (paw swelling; [1]) was 12%, the inhibition in vivo at 30 mg/kg (paw swelling; [2]) was 15% and the inhibition in vivo at 30 mg/kg (paw swelling; [3]) was 2%.

With `CN(C)Cc1ccccc1C(O)c1sccc1Cl` (centres unmarked) [Compound 5, 3-chloro-2-[(2-dimethylaminomethylphenyl)hydroxymethyl]thiophene] the inhibition in vivo at 30 mg/kg (paw swelling; [1]) was 35.6%, the inhibition in vivo at 30 mg/kg (paw swelling; [2]) was 13.6% and the inhibition in vivo at 30 mg/kg (paw swelling; [3]) was 32.3%. The inhibition at 1 µM (human PMN) was 34% and the inhibition at 0.01 µM (human PMN; 0.01 μm, read-out: PERCENT INHIBITION (human PMN chemotaxis) 0.01 μm) was 34%.

`CN(C)Cc1ccccc1C(O)c1c(Cl)sc(Cl)c1Cl` (centres unmarked) [Compound 31, 2,4,5-Trichloro-3-[(2-N,N-dimethylaminomethylphenyl)hydroxymethyl]thiophene hydrochloride] was tested, and the inhibition in vivo at 30 mg/kg (paw swelling; [1]) was 44%, the inhibition in vivo at 30 mg/kg (paw swelling; [2]) was 32% and the inhibition in vivo at 30 mg/kg (paw swelling; [3]) was 0%.

`CN(C)Cc1ccc(C(O)c2ccccc2CN(C)C)s1` (centres unmarked) [Compound 10, 5-N,N-dimethylaminomethyl-2-[2-(N,N-dimethylaminomethylphenyl)hydroxymethyl]thiophene] gave an inhibition in vivo at 30 mg/kg (paw swelling; [1]) of 55.6%, an inhibition in vivo at 30 mg/kg (paw swelling; [2]) of 21.6% and an inhibition in vivo at 30 mg/kg (paw swelling; [3]) of 19.4%.

With `CN(C)Cc1ccccc1C(O)c1ccc(Cl)s1` (centres unmarked) [Compound 1, 5-chloro-2-[(2-dimethylaminomethylphenyl)hydroxymethyl]thiophene] the inhibition in vivo at 10 mg/kg (paw swelling; [4]) was 54%, the inhibition in vivo at 100 mg/kg (paw swelling; [4]) was 87.5% and the inhibition in vivo at 10 mg/kg (paw swelling; [5]) was 23.1%. The inhibition in vivo at 100 mg/kg (paw swelling; [5]) was 71.5%, the inhibition in vivo at 10 mg/kg (paw swelling; [6]) was 17.1% and the inhibition in vivo at 100 mg/kg (paw swelling; [6]) was 67.8%.

For `CN(C)Cc1ccccc1C(O)c1cscc1Br` (centres unmarked) [Compound 26, 4-bromo-3-[(2-N,N-dimethylaminomethylphenyl)hydroxymethyl]thiophene hydrochloride], the inhibition in vivo at 30 mg/kg (paw swelling; [1]) was 42%, the inhibition in vivo at 30 mg/kg (paw swelling; [2]) was 25% and the inhibition in vivo at 30 mg/kg (paw swelling; [3]) was 6%.

`CN(C)Cc1ccccc1C(O)c1cc(I)sc1I` (centres unmarked) [Compound 29, 2,5-diiodo-3-[(2-N,N-dimethylaminomethylphenyl)hydroxymethyl]thiophene hydrochloride] showed an inhibition in vivo at 30 mg/kg (paw swelling; [1]) of 50%, an inhibition in vivo at 30 mg/kg (paw swelling; [2]) of 29% and an inhibition in vivo at 30 mg/kg (paw swelling; [3]) of 0%.

For `CN(C)Cc1ccccc1C(O)c1csc(Cl)c1Cl` (centres unmarked) [Compound 30, 4,5-dichloro-3-[(2-N,N-dimethylaminomethylphenyl)hydroxymethyl]thiophene hydrochloride], the inhibition in vivo at 30 mg/kg (paw swelling; [1]) was 47% and the inhibition in vivo at 30 mg/kg (paw swelling; [2]) was 36%.

`CN(C)Cc1ccccc1C(O)c1ccc(C2(C)OCCO2)s1` (centres unmarked) [Compound 19, 2-[(2-dimethylaminomethylphenyl)hydroxymethyl]-5-(1,1-ethylenedioxyethyl) thiophene] gave an inhibition in vivo at 30 mg/kg (paw swelling; [1]) of 40%, an inhibition in vivo at 30 mg/kg (paw swelling; [2]) of 37% and an inhibition in vivo at 30 mg/kg (paw swelling; [3]) of 11%.

Compound `CN(C)Cc1ccccc1C(O)c1ccc(Br)s1` (centres unmarked) [Compound 15] has an inhibition in vivo at 30 mg/kg (paw swelling; [1]) of 63.1%, an inhibition in vivo at 30 mg/kg (paw swelling; [2]) of 47.1% and an inhibition in vivo at 30 mg/kg (paw swelling; [3]) of 26.7%.

`CC(c1ccccc1C(O)c1csc(Br)c1)N(C)C` (centres unmarked) [Compound 35, 5-bromo-3-[2-(1-N,N-dimethylaminoethylphenyl)hydroxymethyl]thiophene] showed an inhibition in vivo at 30 mg/kg (paw swelling; [1]) of 58%, an inhibition in vivo at 30 mg/kg (paw swelling; [2]) of 48% and an inhibition in vivo at 30 mg/kg (paw swelling; [3]) of 9%.

With `CN(C)Cc1ccccc1C(O)c1cc(Cl)sc1Cl` (centres unmarked) [Compound 25, 2,5-dichloro-3[(2-N,N-dimethylaminomethylphenyl)hydroxymethyl]thiophene hydrochloride] the inhibition in vivo at 30 mg/kg (paw swelling; [1]) was 68%, the inhibition in vivo at 30 mg/kg (paw swelling; [2]) was 64% and the inhibition in vivo at 30 mg/kg (paw swelling; [3]) was 38%.

In the case of `CN(C)Cc1ccccc1C(=O)c1ccsc1` [Compound 37, 3-[2-(2-N,N-dimethylaminomethylphenyl)carbonyl]thiophene], the inhibition in vivo at 30 mg/kg (paw swelling; [1]) is reported as 0%, the inhibition in vivo at 30 mg/kg (paw swelling; [2]) is reported as 0% and the inhibition in vivo at 30 mg/kg (paw swelling; [3]) is reported as 0%.

`CC(c1ccccc1C(O)c1ccc(Cl)s1)N(C)C` (centres unmarked) [Compound 36, 5-chloro-2-[2-(1-N,N-dimethylaminoethylphenyl)hydroxymethyl]thiophene hydrochloride] gave an inhibition in vivo at 30 mg/kg (paw swelling; [1]) of 52%, an inhibition in vivo at 30 mg/kg (paw swelling; [2]) of 15% and an inhibition in vivo at 30 mg/kg (paw swelling; [3]) of 3%.

Compound `CN(C)Cc1ccccc1C(O)c1sccc1Br` (centres unmarked) [Compound 17, 3-bromo-2-[(2-dimethylaminomethylphenyl)hydroxymethyl]thiophene monofumarate] has an inhibition in vivo at 30 mg/kg (paw swelling; [1]) of 49%, an inhibition in vivo at 30 mg/kg (paw swelling; [2]) of 5% and an inhibition in vivo at 30 mg/kg (paw swelling; [3]) of 0%.

For `CN(C)Cc1ccccc1C(O)c1csc(I)c1` (centres unmarked) [Compound 28, 5-iodo-3-[(2-N,N-dimethylaminomethylphenyl)hydroxymethyl]thiophene hydrochloride], the inhibition in vivo at 30 mg/kg (paw swelling; [1]) was 21%, the inhibition in vivo at 30 mg/kg (paw swelling; [2]) was 0% and the inhibition in vivo at 30 mg/kg (paw swelling; [3]) was 13%.

Work on `CN(C)Cc1ccccc1C(O)c1sc(Cl)cc1Cl` (centres unmarked) [Compound 32, 3,5-dichloro-2-[(N,N-dimethylaminomethylphenyl)hydroxymethyl]thiophene hydrochloride] yielded an inhibition in vivo at 30 mg/kg (paw swelling; [1]) of 62%, an inhibition in vivo at 30 mg/kg (paw swelling; [2]) of 47% and an inhibition in vivo at 30 mg/kg (paw swelling; [3]) of 12%.

With `Cc1cc(Cl)sc1C(O)c1ccccc1CN(C)C` (centres unmarked) [Compound 13, 5-chloro-2-[(dimethylaminomethylphenyl)hydroxymethyl]-3-methylthiophene] the inhibition in vivo at 30 mg/kg (paw swelling; [1]) was 66.8%, the inhibition in vivo at 100 mg/kg (paw swelling; [4]) was 51.7% and the inhibition in vivo at 30 mg/kg (paw swelling; [2]) was 24.1%. The inhibition in vivo at 100 mg/kg (paw swelling; [5]) was 28.6%, the inhibition in vivo at 30 mg/kg (paw swelling; [3]) was 7.3% and the inhibition in vivo at 100 mg/kg (paw swelling; [6]) was 3.3%.
